Drawing on ChEMBL document CHEMBL1141241, “3,6-disubstituted coumarins as mechanism-based inhibitors of thrombin and factor Xa” (J Med Chem, 2005), this text covers residual activity and Ratio for 34 compounds.

The target of test [1] is Prothrombin (Homo sapiens) (UniProt P00734). As to conditions: at 2 µM.
Description: Inhibitory activity against human thrombin at 2 uM
The target of test [2] is Coagulation factor X (Homo sapiens) (UniProt P00742). In words: Inhibitory activity against human FXa at 5 uM; values are per cent of control.
Test [3] can be described thus: Selectivity ratio for human thrombin over bovine trypsin.

Coagulation factor X (Homo sapiens), sequence (P00742 41-179 limits assumed): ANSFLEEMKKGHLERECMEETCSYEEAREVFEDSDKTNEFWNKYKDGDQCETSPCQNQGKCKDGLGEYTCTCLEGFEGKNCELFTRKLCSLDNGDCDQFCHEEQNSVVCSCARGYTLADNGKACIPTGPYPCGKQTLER
Coagulation factor X (Homo sapiens), sequence (P00742 235-488 limits assumed): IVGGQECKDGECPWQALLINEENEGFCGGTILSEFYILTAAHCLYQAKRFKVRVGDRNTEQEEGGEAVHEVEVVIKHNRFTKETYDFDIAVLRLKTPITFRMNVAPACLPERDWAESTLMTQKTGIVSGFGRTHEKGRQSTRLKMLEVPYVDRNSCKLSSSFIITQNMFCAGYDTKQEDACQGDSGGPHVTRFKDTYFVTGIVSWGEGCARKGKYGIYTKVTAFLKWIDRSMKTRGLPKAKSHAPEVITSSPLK

By residual activity is commonly meant the signal under treatment as a percentage of the control signal. For `Cc1ccccc1OC(=O)c1cc2cc(CCl)ccc2oc1=O`, the residual activity is 79% in test [1] and 103% in test [2].

Turning to `O=C(Oc1ccccn1)c1cc2cc(CCl)ccc2oc1=O`, the residual activity turned out to be 100% in test [1] and 89% in test [2].

Consider `O=C(Oc1cccc2cccnc12)c1cc2cc(CCl)ccc2oc1=O`, for which the residual activity in test [1] turned out to be 107%; in test [2], 114%.

Turning to `O=C(c1cccc(Cl)c1)c1cc2cc(CCl)ccc2oc1=O`, the residual activity in test [1] stood at 100%; in test [2], 83%.

For the compound `O=C(Cc1cccc(Cl)c1)c1cc2cc(CCl)ccc2oc1=O`, the residual activity in test [1] and in test [2] was 77% throughout.

On to `O=C(Oc1ccccc1Cl)c1cc2cc(CCl)ccc2oc1=O`, for which the residual activity in test [1] was found to be 78%; in test [2] it was 134%.

With `O=C(Oc1cccc(C(F)(F)F)c1)c1cc2cc(CCl)ccc2oc1=O`, the residual activity in test [1] was 66%; in test [2], 134%.

For `O=C(Oc1cccc(F)c1)c1cc2cc(CCl)ccc2oc1=O`, the results for the residual activity in test [1] and in test [2] were 24% and 61%, respectively.

Consider `Cc1ccc2oc(=O)c(C(=O)Oc3cccc(Cl)c3)cc2c1`, for which the residual activity in test [1] is 70%; in test [2], 61%.

As for `O=C(Oc1ccccc1I)c1cc2cc(CCl)ccc2oc1=O`, the residual activity in test [1] was determined as 59%; in test [2] it was 92%.

`COc1cccc(OC(=O)c2cc3cc(CCl)ccc3oc2=O)c1`: the results for the residual activity in test [1] and in test [2] were 66% and 108%, respectively.

As to `O=C(Sc1cccc(Cl)c1)c1cc2cc(CCl)ccc2oc1=O`, the residual activity in test [1] was 107%; in test [2], 60%.

On to `O=C(Oc1cccc(I)c1)c1cc2cc(CCl)ccc2oc1=O`, for which the residual activity in test [1] was 27%; in test [2] it was 73%.

For `O=C(Oc1ccc2ccccc2c1)c1cc2cc(CCl)ccc2oc1=O`, the residual activity in test [1] worked out at 109%; in test [2], 113%.

For `COc1cc(Cl)cc(OC(=O)c2cc3cc(CCl)ccc3oc2=O)c1`, the results for the residual activity in test [1] and in test [2] were 103% and 126%, respectively.

As to `O=C(Oc1ccc(Cl)cc1)c1cc2cc(CCl)ccc2oc1=O`, the residual activity in test [1] was 107%; in test [2], 102%.

On to `O=C(Oc1cccc(Br)c1)c1cc2cc(CCl)ccc2oc1=O`, for which the residual activity turned out to be 8% in test [1] and 33% in test [2]. Further, the Ratio in test [3] was found to be 55.

With `CC(=O)OCc1ccc2oc(=O)c(C(=O)Oc3cccc(Cl)c3)cc2c1`, the residual activity in test [1] was determined as 91%; in test [2], 82%.

Turning to `O=C(Oc1ccccc1)c1cc2cc(CCl)ccc2oc1=O`, the residual activity in test [1] turned out to be 60%; in test [2], 59%.

Consider `Cc1cccc(OC(=O)c2cc3cc(CCl)ccc3oc2=O)c1`, for which the residual activity in test [1] was found to be 35%; in test [2] it was 78%.

For the compound `O=C(Nc1cccc(Cl)c1)c1cc2cc(CCl)ccc2oc1=O`, the residual activity amounted to 97% in test [1] and 89% in test [2].

Turning to `O=C(Oc1ccc2ncccc2c1)c1cc2cc(CCl)ccc2oc1=O`, the residual activity in test [1] was found to be 98%; in test [2], 125%.

In the case of `O=C(Oc1ccc(I)cc1)c1cc2cc(CCl)ccc2oc1=O`, the residual activity in test [1] is 99%; in test [2], 80%.

For `O=C(Oc1cc(Cl)cc(Cl)c1)c1cc2cc(CCl)ccc2oc1=O`, the residual activity in test [1] came to 102%; in test [2] it was 73%.

Regarding `O=C(Oc1cccnc1)c1cc2cc(CCl)ccc2oc1=O`, the values for the residual activity in test [1] and in test [2] were 113% and 114%, respectively.

`O=C(Oc1cccc([N+](=O)[O-])c1)c1cc2cc(CCl)ccc2oc1=O`: the residual activity came out at 80% in test [1] and 124% in test [2].

On to `O=C(Oc1cc(Cl)ccc1Cl)c1cc2cc(CCl)ccc2oc1=O`, for which, in test [2], the residual activity turned out to be 39%.

As for `O=C(Oc1cccc(Cl)c1)c1cc2ccccc2oc1=O`, the residual activity in test [1] is 107%; in test [2], 77%.

Turning to `O=C(Oc1cccc(Cl)c1Cl)c1cc2cc(CCl)ccc2oc1=O`, the values for the residual activity in test [1] and in test [2] were 100% and 125%, respectively.

Turning to `O=C(OCc1ccccc1)c1cc2cc(CCl)ccc2oc1=O`, the results for the residual activity in test [1] and in test [2] were 95% and 110%, respectively.

As for `O=C(Oc1cccc2ccccc12)c1cc2cc(CCl)ccc2oc1=O`, the figures for the residual activity in test [1] and in test [2] were 115% and 109%, respectively.

As for `O=C(Oc1c(Cl)cccc1Cl)c1cc2cc(CCl)ccc2oc1=O`, the values for the residual activity in test [1] and in test [2] were 101% and 109%, respectively.

Take `O=C(Oc1cccc(Cl)c1)c1cc2cc(CCl)ccc2oc1=O`: the residual activity in test [1] was 10%; in test [2], 29%. Further, the Ratio in test [3] came to 25.

On to `Cc1ccc(OC(=O)c2cc3cc(CCl)ccc3oc2=O)cc1`, for which the residual activity is 111% in test [1] and 72% in test [2].
